# Experimental data taken from publication PMC9780942, “Antimicrobial Activity and Immunomodulatory Properties of Acidocin A, the Pediocin-like Bacteriocin with the Non-Canonical Structure” (Membranes, 2022).
# Positions of bridges follow the written chain, without caps; N, C: chain ends. No end group written: not given here.
# Assays:
# [1] = tested on: primary CD14+ blood monocytes; assay: Cytokine response by human monocytes, multiplex xMAP; type: cell-based; conditions: 2 µM peptide, 24 h, supernatant; for MCP-3: untreated control 52.14; for TNFa: untreated control 67.34; for PDGF-AB/BB: untreated control 86.09; for MIG: untreated control 205.59
# [2] = Circular dichroism spectroscopy, secondary structure estimation; type: physicochemical; conditions: calculated from previously published CD spectra
sequence,measurement,setting,value
TYYGNGVSCNKKGCSVDWGKAISIIGNNSAANLATGGAAGWKS (disulfide 9-14) [Avicin A],IL-1b,[1]; untreated control 2.28,17.13 pg/mL
same,IL-6,[1]; untreated control 4.48,2787 pg/mL
same,VEGFa,[1]; untreated control 5.44,<1.52↓ pg/ml
same,MIP-1a,[1]; untreated control 11.73,6628 pg/mL
same,PDGF-AA,[1]; untreated control 12.5,10.87 pg/mL
same,sCD40L,[1]; untreated control 15.86,45.71 pg/mL
same,IP-10,[1]; untreated control 19.67,21.71 pg/mL
same,MIP-1b,[1]; untreated control 34.63,3805 pg/mL
same,MCP-3,[1],227 pg/mL
same,MCP-3,[1]; listed as AviA,227.15 pg/mL
same,TNFa,[1],"17,982 pg/ml"
same,TNFa,[1]; listed as AviA,17982 pg/mL
same,PDGF-AB/BB,[1],99 pg/mL
same,PDGF-AB/BB,[1]; listed as AviA,99.49 pg/mL
same,MIG,[1],729 pg/mL
same,MIG,[1]; listed as AviA,729.91 pg/mL
same,IL-1RA,[1]; untreated control 261.2,253.61 pg/mL
same,GROa,[1]; untreated control 311.89,4832 pg/mL
same,MDC,[1]; untreated control 463.06,2303 pg/mL
same,MCP-1,[1]; untreated control 464.5,3950 pg/mL
same,IL-8,[1]; untreated control 12488,>36420↑ pg/ml
same,IL-7,[1]; untreated control <0.20,<0.20↓ pg/ml
same,IL-18,[1]; untreated control <0.20,<0.20↓ pg/ml
same,IL-5,[1]; untreated control <0.26,<0.26↓ pg/ml
same,IL-4,[1]; untreated control <0.33,<0.33↓ pg/ml
same,TNFb,[1]; untreated control <0.49,7.81 pg/mL
same,TGF-a,[1]; untreated control <0.53,2.38 pg/mL
same,IL-3,[1]; untreated control <0.68,<0.68↓ pg/ml
same,IL-2,[1]; untreated control <0.85,0.86 pg/mL
same,IL-10,[1]; untreated control <1.23,4.28 pg/mL
same,FLT-3L,[1]; untreated control <1.35,<1.35↓ pg/ml
same,GM-CSF,[1]; untreated control <1.39,12.72 pg/mL
same,IL-15,[1]; untreated control <1.45,1.55 pg/mL
same,IL-12 (p70),[1]; untreated control <1.58,<1.58↓ pg/ml
same,IFNg,[1]; untreated control <1.79,<1.79↓ pg/ml
same,IL-17A,[1]; untreated control <2.00,<2.00↓ pg/ml
same,IL-1a,[1]; untreated control <2.78,10.22 pg/mL
same,RANTES,[1]; untreated control <2.79,638.27 pg/mL
same,IL-13,[1]; untreated control <2.90,7.71 pg/mL
same,G-CSF,[1]; untreated control <3.18,190 pg/mL
same,IL-12 (p40),[1]; untreated control <3.18,19.93 pg/mL
same,G-CSF,"[1]; untreated control <3.18, listed as AviA",190.3 pg/mL
same,IFNa2,[1]; untreated control <3.89,4.69 pg/mL
same,Eotaxin,[1]; untreated control <4.09,<4.09↓ pg/ml
same,IL-9,[1]; untreated control <4.87,6.5 pg/mL
same,EGF,[1]; untreated control <4.94,6.51 pg/mL
same,IL-22,[1]; untreated control <7.95,15.81 pg/mL
same,IL-27,[1]; untreated control <11.45,31.07 pg/mL
same,FGF-2,[1]; untreated control <12.00,33.02 pg/mL
same,IL-17F,[1]; untreated control <14.61,<14.61↓ pg/ml
same,Fractalkine,[1]; untreated control <19.20,<19.20↓ pg/ml
same,IL-17E/IL-25,[1]; untreated control <19.97,<19.97↓ pg/ml
same,M-GSF,[1]; untreated control <23.43,261.13 pg/mL
same,Random,[2]; Aqueous solution,39.3%
same,α-Helix,[2]; Aqueous solution,5.8%
same,β-Sheet,[2]; Aqueous solution,32.8%
same,β-Turn,[2]; Aqueous solution,22.1%
same,Random,[2]; DPC micelles,27.8%
same,α-Helix,[2]; DPC micelles,19.4%
same,β-Sheet,[2]; DPC micelles,28.6%
same,β-Turn,[2]; DPC micelles,21.6%
same,Random,[2]; SDS micelles,30.4%
same,α-Helix,[2]; SDS micelles,19.7%
same,β-Sheet,[2]; SDS micelles,29.3%
same,β-Turn,[2]; SDS micelles,23.1%
